From ChEMBL document CHEMBL5365481, “Design, Synthesis, and Activity Evaluation of Novel Dual-Target Inhibitors with Antifungal and Immunoregulatory Properties” (J Med Chem, 2023)
≈ marks a conversion by molar mass, not a printed value. Calls of active or inactive are those of the source. The rule behind the calls is not given here.

What was measured:
[1] = tested on: Candida albicans; assay: Antifungal activity against Candida albicans ATCC SC5314 assessed as inhibition of fungal growth incubated for 72 hrs by CLSI based liquid medium microdilution method; assay type: functional
[2] = tested on: Candida albicans; assay: Antifungal activity against fluconazole-resistant Candida albicans CaR assessed as inhibition of fungal growth incubated for 72 hrs by CLSI based liquid medium microdilution method; assay type: functional
[3] = biological target: Lanosterol 14-alpha demethylase (Candida albicans (strain SC5314 / ATCC MYA-2876) (Yeast), UniProt P10613); assay: Inhibition of Candida albicans ATCC SC5314 CYP51 assessed as other unknown sterol content at 4 ug/ml measured after 16 hrs by GC-MS analysis (Rvb= 3.82%); parameters: scale not given: the % may be the effect or the level left; details: at 4 µg/mL
[4] = tested on: Candida albicans; assay: Antifungal activity against Candida albicans ATCC SC5314 assessed as change in structural stability at 1 microM/ml incubated for 48 hrs by absorbance based assay; assay type: functional, organism-based
[5] = tested on: Candida albicans; assay: Induction of ROS generation in Candida albicans ATCC SC5314 assessed as increase in fluorescence intensity at 1 microM/ml incubated for 48 hrs by fluorescent microscopy; assay type: functional, organism-based
[6] = tested on: Candida albicans; assay: Induction of mitochondrial membrane depolarization in Candida albicans ATCC SC5314 assessed as normal cells at 1 microM/ml incubated for 24 hrs by JC-1 staining based flow cytometry assay (reference value: 94.4 +/- 1.15%); assay type: functional
[7] = tested on: Candida albicans; assay: Induction of apoptosis in Candida albicans ATCC SC5314 assessed as normal cells at 1 microM/ml incubated for 48 hrs by Hoechst 33258/PI staining based flow cytometry (Rvb= 94.8 +/- 0.3%); assay type: functional
[8] = tested on: Candida albicans; assay: Induction of apoptosis in Candida albicans ATCC SC5314 assessed as early apoptotic cells at 1 microM/ml incubated for 48 hrs by Hoechst 33258/PI staining based flow cytometry (Rvb= 5.1 +/- 0.3%); assay type: functional
[9] = tested on: Candida albicans; assay: In vivo antifungal activity against Candida albicans ATCC SC5314 infected in BALB/c mouse assessed as increase in body weight at 10 ug, ip for 14 days; assay type: functional, organism-based; details: dose 10.0 µg, time 14.0 day
[10] = tested on: Candida albicans; assay: In vivo antifungal activity against Candida albicans ATCC SC5314 infected in BALB/c mouse assessed as shrinkage in infected region at 10 ug, ip for 14 days; assay type: functional, organism-based; details: dose 10.0 µg, time 14.0 day
[11] = tested on: Candida albicans; assay: In vivo antifungal activity against Candida albicans ATCC SC5314 infected in BALB/c mouse assessed as shrinkage in infected region at 10 ug, ip for 14 days in presence of Biphenyl isopropyl ester; assay type: functional, organism-based; details: dose 10.0 µg, time 14.0 day
[12] = tested on: Candida albicans; assay: In vivo antifungal activity against Candida albicans ATCC SC5314 infected in BALB/c mouse assessed as decrease in number of exogenous fungal cells at 10 ug, ip for 14 days by H and E staining based microscopy; assay type: functional, organism-based; details: dose 10.0 µg, time 14.0 day
[13] = tested on: Candida albicans; assay: In vivo antifungal activity against Candida albicans ATCC SC5314 infected in BALB/c mouse assessed as decrease in number of exogenous fungal cells at 10 ug, ip for 14 days in presence of Biphenyl isopropyl ester by H and E staining based microscopy; assay type: functional, organism-based; details: dose 10.0 µg, time 14.0 day
[14] = tested on: Candida albicans; assay: In vivo antifungal activity against Candida albicans ATCC SC5314 infected in BALB/c mouse assessed as disappearance of nuclei aggregation at 10 ug, ip for 14 days in presence of Biphenyl isopropyl ester by GMS staining based microscopy; assay type: functional, organism-based; details: dose 10.0 µg, time 14.0 day
[15] = Toxicity in BALB/c mouse infected with Candida albicans ATCC SC5314 assessed as morphological changes in liver at 10 ug, ip for 14 days in presence of Biphenyl isopropyl ester by H and E staining based microscopy; assay type: organism-based; details: in vivo, 336 h, dose 10 µg, time 14 day
[16] = Toxicity in BALB/c mouse infected with Candida albicans ATCC SC5314 assessed as morphological changes in spleen at 10 ug, ip for 14 days in presence of Biphenyl isopropyl ester by H and E staining based microscopy; assay type: organism-based; details: in vivo, 336 h, dose 10 µg, time 14 day
[17] = Toxicity in BALB/c mouse infected with Candida albicans ATCC SC5314 assessed as morphological changes in lung at 10 ug, ip for 14 days in presence of Biphenyl isopropyl ester by H and E staining based microscopy; assay type: organism-based; details: in vivo, 336 h, dose 10 µg, time 14 day
[18] = Toxicity in BALB/c mouse infected with Candida albicans ATCC SC5314 assessed as plasma BUN level at 10 ug, ip for 14 days; assay type: organism-based; details: in vivo, 336 h, dose 10 µg, time 14 day
[19] = tested on: Candida albicans; assay: In vivo antifungal activity against Candida albicans ATCC SC5314 infected in BALB/c mouse assessed as decrease in NLRP3 expression level at 10 ug, ip for 14 days by Western blot analysis; assay type: functional, organism-based; details: dose 10.0 µg, time 14.0 day
[20] = tested on: Candida albicans; assay: In vivo antifungal activity against Candida albicans ATCC SC5314 infected in BALB/c mouse assessed as decrease in IFN-gamma expression level at 10 ug, ip for 14 days by Western blot analysis; assay type: functional, organism-based; details: dose 10.0 µg, time 14.0 day
[21] = tested on: Candida albicans; assay: In vivo antifungal activity against Candida albicans ATCC SC5314 infected in BALB/c mouse assessed as decrease in IFN-gamma expression level at 10 ug, ip for 14 days in presence of Biphenyl isopropyl ester by Western blot analysis; assay type: functional, organism-based; details: dose 10.0 µg, time 14.0 day
[22] = tested on: Candida albicans; assay: In vivo antifungal activity against Candida albicans ATCC SC5314 infected in BALB/c mouse assessed as decrease in IL-2 expression level at 10 ug, ip for 14 days by immunohistochemical analysis; assay type: functional, organism-based; details: dose 10.0 µg, time 14.0 day
[23] = tested on: Candida albicans; assay: In vivo antifungal activity against Candida albicans ATCC SC5314 infected in BALB/c mouse assessed as decrease in IFN-gamma expression level at 10 ug, ip for 14 days in presence of Biphenyl isopropyl ester by immunohistochemical analysis; assay type: functional, organism-based; details: dose 10.0 µg, time 14.0 day
[24] = tested on: Candida albicans; assay: In vivo antifungal activity against Candida albicans ATCC SC5314 infected in BALB/c mouse assessed as fold increase in CD8+ expression level in T cells at 10 ug, ip for 14 days in presence of Biphenyl isopropyl ester by immunohistochemical analysis; assay type: functional, T-cell; details: dose 10 µg, time 14 day
[25] = biological target: Programmed cell death protein 1/Programmed cell death 1 ligand 1 (Homo sapiens, UniProt Q9NZQ7); assay: Inhibition of PD-1/PD-L1 interaction (unknown origin) incubated for 15 mins by ELISA; assay type: protein-complex assay
[26] = biological target: Programmed cell death 1 ligand 1 (Homo sapiens, UniProt Q9NZQ7); assay: Binding affinity to PD-L1 (unknown origin) assessed as dissociation constant by SPR analysis
[27] = tested on: Cell membrane; assay: Induction of cell membrane integrity disruption in Candida albicans ATCC SC5314 assessed as reduced cytoplasmic density at 1 microM/ml incubated for 48 to 72 hrs by TEM analysis; assay type: subcellular; details: time 48-72 hrs
[28] = tested on: Candida albicans; assay: In vivo antifungal activity against Candida albicans ATCC SC5314 infected in BALB/c mouse assessed as decrease in PD-L1 expression level at 10 ug, ip for 14 days by immunohistochemical analysis; assay type: functional, organism-based; details: dose 10.0 µg, time 14.0 day
[29] = tested on: Candida albicans; assay: In vivo antifungal activity against Candida albicans ATCC SC5314 infected in BALB/c mouse assessed as fold increase in CD8+ expression level in T cells at 10 ug, ip for 14 days by immunohistochemical analysis; assay type: functional
[30] = tested on: Candida albicans; assay: In vivo antifungal activity against Candida albicans ATCC SC5314 infected in BALB/c mouse assessed as fold increase in CD3+ expression level in T cells at 10 ug, ip for 14 days by immunohistochemical analysis; assay type: functional, T-cell; details: dose 10 µg, time 14 day

Lanosterol 14-alpha demethylase, sequence (P10613 whole entry): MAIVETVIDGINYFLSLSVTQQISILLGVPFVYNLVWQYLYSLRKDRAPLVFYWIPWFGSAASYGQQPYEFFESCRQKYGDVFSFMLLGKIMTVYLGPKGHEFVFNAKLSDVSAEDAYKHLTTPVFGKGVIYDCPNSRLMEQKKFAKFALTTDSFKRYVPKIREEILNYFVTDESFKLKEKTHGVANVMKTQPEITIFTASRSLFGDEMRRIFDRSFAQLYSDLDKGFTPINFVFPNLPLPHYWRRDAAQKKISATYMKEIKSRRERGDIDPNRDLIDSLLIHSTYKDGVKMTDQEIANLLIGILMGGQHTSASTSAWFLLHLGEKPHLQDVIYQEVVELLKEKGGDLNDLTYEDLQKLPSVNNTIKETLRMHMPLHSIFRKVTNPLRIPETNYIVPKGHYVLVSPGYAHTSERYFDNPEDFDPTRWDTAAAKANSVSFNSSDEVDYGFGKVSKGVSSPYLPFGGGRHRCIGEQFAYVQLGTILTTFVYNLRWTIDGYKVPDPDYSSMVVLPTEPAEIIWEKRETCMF
Programmed cell death 1 ligand 1, sequence (Q9NZQ7 whole entry): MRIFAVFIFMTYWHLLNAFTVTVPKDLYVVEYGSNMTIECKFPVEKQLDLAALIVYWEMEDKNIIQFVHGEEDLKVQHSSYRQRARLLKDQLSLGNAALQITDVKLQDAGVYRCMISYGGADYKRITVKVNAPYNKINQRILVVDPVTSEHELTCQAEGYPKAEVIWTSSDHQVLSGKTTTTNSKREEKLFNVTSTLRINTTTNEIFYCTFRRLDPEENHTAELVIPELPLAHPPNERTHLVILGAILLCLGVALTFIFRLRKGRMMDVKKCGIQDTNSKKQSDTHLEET
Programmed cell death protein 1/Programmed cell death 1 ligand 1, sequence (Q15116 whole entry): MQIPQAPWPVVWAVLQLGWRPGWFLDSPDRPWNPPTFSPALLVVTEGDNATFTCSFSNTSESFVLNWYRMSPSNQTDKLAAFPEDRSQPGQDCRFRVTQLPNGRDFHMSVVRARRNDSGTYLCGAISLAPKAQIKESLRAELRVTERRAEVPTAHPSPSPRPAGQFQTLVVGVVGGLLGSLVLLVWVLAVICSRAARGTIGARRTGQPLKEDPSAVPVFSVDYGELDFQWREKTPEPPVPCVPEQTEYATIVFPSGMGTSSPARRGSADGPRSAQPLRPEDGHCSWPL
Programmed cell death protein 1/Programmed cell death 1 ligand 1, sequence (Q9NZQ7 whole entry): as the sequence (Q9NZQ7 whole entry) above

Row | SMILES | MIC50 [1] [µg/mL] | MIC50 [2] [µg/mL] | Activity [3] [%] | Activity [4] | Activity [5] | Activity [6] [%] | Activity [7] [%] | Activity [8] [%] | Activity [9] | Activity [10] | Activity [12] | Activity [18] [mM] | Activity [19] | Activity [20] | Activity [22] | IC50 [25] [nM] | Kd [26] [nM] | Activity [28] | fold change (FC) [30] | also measured
1 | OC(Cn1cncn1)(Cn1cncn1)c1ccc(F)cc1F [FLUCONAZOLE] | 0.5 (≈ 1.63 µM) | > 8 | 5.58 | Active | Active | 65.4 | 44.6 | 55.3 | Active | Active | Active | 24.2 | Active | Active | Active | – | – | – | – | Activity [11]: Active; Activity [13]: Active; Activity [14]: Active; Activity [15]: Non-Toxic; Activity [16]: Non-Toxic; Activity [17]: Non-Toxic; Activity [21]: Active; Activity [23]: Active; fold change (FC) [24]: 1.46
2 | CC(=O)c1ccc(C(=O)N2CCC(NC(=O)c3nc(-n4cncn4)c4ccccc4n3)CC2)cc1 | 0.25 (≈ 0.532 µM) | 2 (≈ 4.26 µM) | 5.74 | Active | Active | 42.6 | 42 | 57.9 | Active | Active | Active | 17.9 | Active | Active | Active | 17 | 65.5 | Active | 1.46 | Activity [27]: Active; Activity ([29]; T-cell, dose 10.0 µg, time 14.0 day): Active
3 | CC(C)c1ccc(C(=O)N2CCC(NC(=O)c3nc(-n4ccnc4)c4ccccc4n3)CC2)cc1 | 0.25 (≈ 0.534 µM) | 4 (≈ 8.54 µM) | 5.58 | Active | Active | 52.3 | 45.3 | 54.5 | Active | Active | Active | 20.2 | Active | Active | Active | 39 | 60.7 | Active | 1.46 | fold change (FC) ([29]; dose 10 µg, time 14 day): 1.46
